From PubChem BioAssay AID1963962 (Molecular Pharmacology Branch, DTP, NCI, 2024)

Tested on: 967376-340-R-J2-PDC multicell spheroid viability
Assay: Anticancer human tumor 967376-340-R-J2-PDC patient-derived colon adenocarcinoma cell line growth inhibition [PI3K]
Conditions: for IC50: curve of first compound; for viability, T/C: stronger effect = lower value
Text: Combinatorial screen of targeted agents with the PI3K inhibitors inavolisib, alpelisib, duvelisib, and copanlisib in multi-cell type tumor spheroids
A high-throughput screen of multi-cell type tumor spheroids was designed to identify active combinations of targeted small molecules and PI3K pathway inhibitors. Complex spheroids include a stromal component modeled by human endothelial cells (HUVEC) and fibroblasts modeled by human mesenchymal stem cells (MSCs). The concentration ranges selected for each drug and investigational agent were based upon clinically achievable concentrations if the clinical Cmax of the agent was known.
Compounds. The drugs and investigational agents: inavolisib (NSC800729), alpelisib (NSC765974), duvelisib (NSC772469), copanlisib (NSC816437), ipatasertib (NSC767898), afuresertib (NSC778305), talazoparib (NSC767125), sapanisertib (NSC764658), selumetinib (NSC741078), tovorafenib (DAY101, NSC766906), vemurafenib (NSC761431), ravoxertinib (NSC781343), sotorasib (NSC818433), MRTX1133 (NSC 836407), abemaciclib (NSC 768073), palbociclib (NSC758247), venetoclax (NSC 766270), SY5609 (NSC837396), enzalutamide (NSC755605), and darolutamide (NSC825331), were obtained from the National Cancer Institute (NCI) Developmental Therapeutics Program Chemical Repository. The FDA-approved anticancer drug set is available from the NCI Developmental Therapeutics Program. […] The stock solutions were prepared in dimethyl sulfoxide (DMSO, Sigma-Aldrich, St. Louis, MO, cat. D2650) at 800-fold the tested concentration and stored at -70 degrees C prior to their use. All drugs and investigational agents were tested over a range starting from a high concentration at or near the clinical Cmax and decreasing in half-log increments. If the clinical Cmax for an agent had not been determined, the highest concentration tested was 10 microM.
Cell Culture. All cells were maintained in an incubator at 37 degrees C and 5% CO2 with 95% humidity. The PDC lines were cultured according to standard operating procedures established by the NCI PDMR (https://pdmr.cancer.gov/sops/default.htm). All PDCs were thawed and cultured in Matrigel-coated flasks prepared with a working solution of 1X Ham's F-12 nutrient mix, without supplementation (Invitrogen, Waltham, MA, cat. 11765054), 100 U/mL penicillin-streptomycin (Invitrogen, cat. 15140122), and 2.5% Matrigel (Corning Inc., Corning, NY, cat. 354248) for the first three passages. The 354836-022-R-J1-PDC, 475296-252-R-J1-PDC, and 997726-040-R-J2-PDC lines were cultured in 6A media, which includes advanced DMEM/F-12 (Thermo Fisher Scientific, cat. 12634028), 10 mM HEPES (Thermo Fisher Scientific, cat. 15630080), 1X GlutaMAX supplement (Thermo Fisher Scientific, cat. 35050061), 0.1 mg/mL primocin (InvivoGen, San Diego, CA, cat. ant-pm-2), 10% defined fetal bovine serum, heat inactivated (HyClone Laboratories Inc., Logan, UT, cat. SH30070.03HI), 50% L-WRN conditioned media (ATCC, cat. CRL-3276), 1.25 mM N-Acetyl-L-cysteine (Sigma-Aldrich, cat. A9165), 10 mM nicotinamide (Sigma-Aldrich, cat. N0636), 1X B-27 supplement (Thermo Fisher Scientific, cat. 17504044), 1X N-2 supplement (Thermo Fisher Scientific, cat. 17502048), and 10 microM Y-27632 dihydrochloride (Tocris Bioscience, Bristol, United Kingdom, cat. 1254). The 624824-186-R-J2-PDC line was cultured in 6C/Colon 1B media, which includes all 6A media components plus 50 ng/mL human EGF recombinant protein (Thermo Fisher Scientific, cat. PHG0311). […]

[1] = second compound 0.00316 µM, first compound 0.0316 µM
[2] = second compound 0.00316 µM, first compound 0.1 µM
[3] = second compound 0.00316 µM, first compound 0.316 µM
[4] = second compound 0.00316 µM, first compound 1 µM
[5] = second compound 0.00316 µM, first compound 3.16 µM
[6] = second compound 0.00316 µM, first compound 10 µM
[7] = second compound 0.01 µM, first compound 0.0316 µM
[8] = second compound 0.01 µM, first compound 0.1 µM
[9] = second compound 0.01 µM, first compound 0.316 µM
[10] = second compound 0.01 µM, first compound 1 µM
[11] = second compound 0.01 µM, first compound 3.16 µM
[12] = second compound 0.01 µM, first compound 10 µM
[13] = second compound 0.0316 µM, first compound 0.0316 µM
[14] = second compound 0.0316 µM, first compound 0.1 µM
[15] = second compound 0.0316 µM, first compound 0.316 µM
[16] = second compound 0.0316 µM, first compound 1 µM
[17] = second compound 0.0316 µM, first compound 3.16 µM
[18] = second compound 0.0316 µM, first compound 10 µM
[19] = second compound 0.1 µM, first compound 0.0316 µM
[20] = second compound 0.1 µM, first compound 0.1 µM
[21] = second compound 0.1 µM, first compound 0.316 µM
[22] = second compound 0.1 µM, first compound 1 µM
[23] = second compound 0.1 µM, first compound 3.16 µM
[24] = second compound 0.1 µM, first compound 10 µM
[25] = second compound 0.316 µM, first compound 0.0316 µM
[26] = second compound 0.316 µM, first compound 0.1 µM
[27] = second compound 0.316 µM, first compound 0.316 µM
[28] = second compound 0.316 µM, first compound 1 µM
[29] = second compound 0.316 µM, first compound 3.16 µM
[30] = second compound 0.316 µM, first compound 10 µM
[31] = second compound 1 µM, first compound 0.0316 µM
[32] = second compound 1 µM, first compound 0.1 µM
[33] = second compound 1 µM, first compound 0.316 µM
[34] = second compound 1 µM, first compound 1 µM
[35] = second compound 1 µM, first compound 3.16 µM
[36] = second compound 1 µM, first compound 10 µM
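Also: spheroids exposed to agents for 7 days before read-out.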
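For viability, T/C in this document: luminescence used as surrogate of cell viability.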

CC(C)NCC(C(=O)N1CCN(c2ncnc3c2C(C)CC3O)CC1)c1ccc(Cl)cc1 (stereo unspecified) + CC(Nc1ccc2c(c1)OCCn1cc(N3C(=O)OCC3C(F)F)nc1-2)C(N)=O
IC50 (second compound 0.00316 µM): > 10 µM | IC50 (second compound 0.01 µM): > 10 µM | IC50 (second compound 0.0316 µM): > 10 µM | IC50 (second compound 0.1 µM): > 10 µM | IC50 (second compound 0.316 µM): > 10 µM | IC50 (second compound 1 µM): 7.61 µM | viability, T/C [1]: 98.4% | viability, T/C [2]: 118% | viability, T/C [3]: 71.2% | viability, T/C [4]: 76.8% | viability, T/C [5]: 91.9% | viability, T/C [6]: 77.9% | viability, T/C [7]: 79.3% | viability, T/C [8]: 86.5% | viability, T/C [9]: 74.4% | viability, T/C [10]: 84.7% | viability, T/C [11]: 83.4% | viability, T/C [12]: 81.2% | viability, T/C [13]: 68.5% | viability, T/C [14]: 90.4% | viability, T/C [15]: 59.4% | viability, T/C [16]: 77.1% | viability, T/C [17]: 73.5% | viability, T/C [18]: 60.9% | viability, T/C [19]: 60.1% | viability, T/C [20]: 82% | viability, T/C [21]: 68.6% | viability, T/C [22]: 72.4% | viability, T/C [23]: 83.9% | viability, T/C [24]: 64% | viability, T/C [25]: 57.5% | viability, T/C [26]: 60.7% | viability, T/C [27]: 57.6% | viability, T/C [28]: 65.5% | viability, T/C [29]: 57.8% | viability, T/C [30]: 62.8% | viability, T/C [31]: 51.4% | viability, T/C [32]: 59.2% | viability, T/C [33]: 67.6% | viability, T/C [34]: 60.8% | viability, T/C [35]: 57.3% | viability, T/C [36]: 37.2%

CC1(C)CCC(CN2CCN(c3ccc(C(=O)NS(=O)(=O)c4ccc(NCC5CCOCC5)c([N+](=O)[O-])c4)c(Oc4cnc5[nH]ccc5c4)c3)CC2)=C(c2ccc(Cl)cc2)C1 + CC(Nc1ccc2c(c1)OCCn1cc(N3C(=O)OCC3C(F)F)nc1-2)C(N)=O
IC50 (second compound 0.00316 µM): > 10 µM | IC50 (second compound 0.01 µM): > 10 µM | IC50 (second compound 0.0316 µM): > 10 µM | IC50 (second compound 0.1 µM): > 10 µM | IC50 (second compound 0.316 µM): 7.82 µM | IC50 (second compound 1 µM): 4.85 µM | viability, T/C [1]: 106% | viability, T/C [2]: 67.9% | viability, T/C [3]: 97.2% | viability, T/C [4]: 98% | viability, T/C [5]: 102% | viability, T/C [6]: 61.1% | viability, T/C [7]: 107% | viability, T/C [8]: 75.7% | viability, T/C [9]: 79.9% | viability, T/C [10]: 78.6% | viability, T/C [11]: 81.2% | viability, T/C [12]: 57.3% | viability, T/C [13]: 67.3% | viability, T/C [14]: 86.5% | viability, T/C [15]: 82.2% | viability, T/C [16]: 88.9% | viability, T/C [17]: 75.9% | viability, T/C [18]: 81.5% | viability, T/C [19]: 70.6% | viability, T/C [20]: 80.5% | viability, T/C [21]: 79.1% | viability, T/C [22]: 84.7% | viability, T/C [23]: 95.7% | viability, T/C [24]: 58.8% | viability, T/C [25]: 68.3% | viability, T/C [26]: 81.5% | viability, T/C [27]: 58.2% | viability, T/C [28]: 76.2% | viability, T/C [29]: 71.2% | viability, T/C [30]: 44.5% | viability, T/C [31]: 56.7% | viability, T/C [32]: 48.1% | viability, T/C [33]: 57.2% | viability, T/C [34]: 49.9% | viability, T/C [35]: 67.8% | viability, T/C [36]: 36.2%

C[C@@H](NC(=O)c1ncnc(N)c1Cl)c1ncc(C(=O)Nc2cc(C(F)(F)F)c(Cl)cn2)s1 + CC(Nc1ccc2c(c1)OCCn1cc(N3C(=O)OCC3C(F)F)nc1-2)C(N)=O
IC50 (second compound 0.00316 µM): > 10 µM | IC50 (second compound 0.01 µM): > 10 µM | IC50 (second compound 0.0316 µM): > 10 µM | IC50 (second compound 0.1 µM): > 10 µM | IC50 (second compound 0.316 µM): > 10 µM | IC50 (second compound 1 µM): > 10 µM | viability, T/C [1]: 105% | viability, T/C [2]: 74.9% | viability, T/C [3]: 73.3% | viability, T/C [4]: 91.9% | viability, T/C [5]: 80.4% | viability, T/C [6]: 97.9% | viability, T/C [7]: 83.9% | viability, T/C [8]: 98.7% | viability, T/C [9]: 101% | viability, T/C [10]: 94.8% | viability, T/C [11]: 97.1% | viability, T/C [12]: 130% | viability, T/C [13]: 62.2% | viability, T/C [14]: 107% | viability, T/C [15]: 69% | viability, T/C [16]: 98.9% | viability, T/C [17]: 95.2% | viability, T/C [18]: 109% | viability, T/C [19]: 72.9% | viability, T/C [20]: 67.8% | viability, T/C [21]: 63.6% | viability, T/C [22]: 77.7% | viability, T/C [23]: 75.2% | viability, T/C [24]: 66% | viability, T/C [25]: 65.5% | viability, T/C [26]: 70.6% | viability, T/C [27]: 78.2% | viability, T/C [28]: 73.5% | viability, T/C [29]: 77.2% | viability, T/C [30]: 70.9% | viability, T/C [31]: 69.4% | viability, T/C [32]: 62.2% | viability, T/C [33]: 56% | viability, T/C [34]: 57.9% | viability, T/C [35]: 69.9% | viability, T/C [36]: 62%
